From publication PMC8436214 (Journal of Medicinal Chemistry, 2021)
Entries after “also recorded” stand apart in the source; their conditions may differ.

How the values were obtained:
Human recombinant PNMT = molecular target: T1, Human recombinant PNMT (Homo sapiens, UniProt P11086); assay: PNMT selectivity assay; type: biochemical
T1 sequence (P11086 1-282): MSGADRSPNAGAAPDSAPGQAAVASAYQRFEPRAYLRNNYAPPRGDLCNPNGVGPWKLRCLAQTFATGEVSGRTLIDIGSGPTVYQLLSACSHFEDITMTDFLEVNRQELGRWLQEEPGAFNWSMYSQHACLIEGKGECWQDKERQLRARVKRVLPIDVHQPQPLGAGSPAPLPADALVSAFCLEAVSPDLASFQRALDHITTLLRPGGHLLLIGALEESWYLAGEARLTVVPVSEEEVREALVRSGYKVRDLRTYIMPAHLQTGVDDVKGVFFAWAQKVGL

PRMT4/CARM1 = molecular target: T2, PRMT4/CARM1 (Homo sapiens, UniProt Q86X55); assay: PRMT4/CARM1 methyltransferase inhibition assay; type: biochemical; settings: 3.7, 11.1, 33.3, and 100 μM
T2 sequence (Q86X55 1-608): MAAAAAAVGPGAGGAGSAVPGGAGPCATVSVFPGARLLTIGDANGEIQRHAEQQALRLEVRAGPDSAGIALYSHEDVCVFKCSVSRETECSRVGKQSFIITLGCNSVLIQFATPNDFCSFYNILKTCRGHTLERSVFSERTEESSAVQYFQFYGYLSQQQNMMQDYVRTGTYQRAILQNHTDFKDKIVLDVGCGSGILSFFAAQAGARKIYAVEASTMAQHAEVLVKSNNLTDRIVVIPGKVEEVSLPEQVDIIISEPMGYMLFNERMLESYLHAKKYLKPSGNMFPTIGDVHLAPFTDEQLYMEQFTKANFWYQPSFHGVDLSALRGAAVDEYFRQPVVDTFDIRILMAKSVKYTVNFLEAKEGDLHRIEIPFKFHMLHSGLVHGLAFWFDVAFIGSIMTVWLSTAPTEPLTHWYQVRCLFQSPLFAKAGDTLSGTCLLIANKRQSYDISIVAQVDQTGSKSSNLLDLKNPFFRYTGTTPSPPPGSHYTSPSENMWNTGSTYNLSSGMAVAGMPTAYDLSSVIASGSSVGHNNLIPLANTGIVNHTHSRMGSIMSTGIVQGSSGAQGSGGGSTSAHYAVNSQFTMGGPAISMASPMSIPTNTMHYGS

SMYD2 = SMYD2 (Homo sapiens, UniProt Q9NRG4); assay: Methyltransferase selectivity assay; type: biochemical
PRMT5 = PRMT5 (Homo sapiens, UniProt O14744); assay: Methyltransferase selectivity assay; type: biochemical
DOT1L = DOT1L (Homo sapiens, UniProt Q8TEK3); assay: Methyltransferase selectivity assay; type: biochemical
[1] = system: HSC-2 human oral cancer cell line; assay: MTT cell proliferation/viability assay; type: cell-based
[2] = system: A549 human lung cancer line; assay: MTT cell proliferation/viability assay; type: cell-based
[3] = system: T24 human bladder cancer cell line; assay: MTT cell proliferation/viability assay; type: cell-based
[4] = Parallel artificial membrane permeability assay; type: in vitro ADME; settings: PAMPA
[5] = lower concentrations tested (from 1 μM)

SMYD2, sequence (Q9NRG4 whole entry, species assumed): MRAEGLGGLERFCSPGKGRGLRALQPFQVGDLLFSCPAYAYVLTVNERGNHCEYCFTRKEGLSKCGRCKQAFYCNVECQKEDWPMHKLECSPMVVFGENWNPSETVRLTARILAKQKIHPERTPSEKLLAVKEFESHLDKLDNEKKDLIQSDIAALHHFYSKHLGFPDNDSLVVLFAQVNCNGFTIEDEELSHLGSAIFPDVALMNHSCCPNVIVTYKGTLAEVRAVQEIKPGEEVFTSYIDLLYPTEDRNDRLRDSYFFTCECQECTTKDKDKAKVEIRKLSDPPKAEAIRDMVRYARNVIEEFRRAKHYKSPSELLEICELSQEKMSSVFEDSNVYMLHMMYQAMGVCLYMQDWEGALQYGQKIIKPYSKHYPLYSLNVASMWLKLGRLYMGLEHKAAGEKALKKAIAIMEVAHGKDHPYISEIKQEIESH
DOT1L, sequence (Q8TEK3 whole entry, species assumed): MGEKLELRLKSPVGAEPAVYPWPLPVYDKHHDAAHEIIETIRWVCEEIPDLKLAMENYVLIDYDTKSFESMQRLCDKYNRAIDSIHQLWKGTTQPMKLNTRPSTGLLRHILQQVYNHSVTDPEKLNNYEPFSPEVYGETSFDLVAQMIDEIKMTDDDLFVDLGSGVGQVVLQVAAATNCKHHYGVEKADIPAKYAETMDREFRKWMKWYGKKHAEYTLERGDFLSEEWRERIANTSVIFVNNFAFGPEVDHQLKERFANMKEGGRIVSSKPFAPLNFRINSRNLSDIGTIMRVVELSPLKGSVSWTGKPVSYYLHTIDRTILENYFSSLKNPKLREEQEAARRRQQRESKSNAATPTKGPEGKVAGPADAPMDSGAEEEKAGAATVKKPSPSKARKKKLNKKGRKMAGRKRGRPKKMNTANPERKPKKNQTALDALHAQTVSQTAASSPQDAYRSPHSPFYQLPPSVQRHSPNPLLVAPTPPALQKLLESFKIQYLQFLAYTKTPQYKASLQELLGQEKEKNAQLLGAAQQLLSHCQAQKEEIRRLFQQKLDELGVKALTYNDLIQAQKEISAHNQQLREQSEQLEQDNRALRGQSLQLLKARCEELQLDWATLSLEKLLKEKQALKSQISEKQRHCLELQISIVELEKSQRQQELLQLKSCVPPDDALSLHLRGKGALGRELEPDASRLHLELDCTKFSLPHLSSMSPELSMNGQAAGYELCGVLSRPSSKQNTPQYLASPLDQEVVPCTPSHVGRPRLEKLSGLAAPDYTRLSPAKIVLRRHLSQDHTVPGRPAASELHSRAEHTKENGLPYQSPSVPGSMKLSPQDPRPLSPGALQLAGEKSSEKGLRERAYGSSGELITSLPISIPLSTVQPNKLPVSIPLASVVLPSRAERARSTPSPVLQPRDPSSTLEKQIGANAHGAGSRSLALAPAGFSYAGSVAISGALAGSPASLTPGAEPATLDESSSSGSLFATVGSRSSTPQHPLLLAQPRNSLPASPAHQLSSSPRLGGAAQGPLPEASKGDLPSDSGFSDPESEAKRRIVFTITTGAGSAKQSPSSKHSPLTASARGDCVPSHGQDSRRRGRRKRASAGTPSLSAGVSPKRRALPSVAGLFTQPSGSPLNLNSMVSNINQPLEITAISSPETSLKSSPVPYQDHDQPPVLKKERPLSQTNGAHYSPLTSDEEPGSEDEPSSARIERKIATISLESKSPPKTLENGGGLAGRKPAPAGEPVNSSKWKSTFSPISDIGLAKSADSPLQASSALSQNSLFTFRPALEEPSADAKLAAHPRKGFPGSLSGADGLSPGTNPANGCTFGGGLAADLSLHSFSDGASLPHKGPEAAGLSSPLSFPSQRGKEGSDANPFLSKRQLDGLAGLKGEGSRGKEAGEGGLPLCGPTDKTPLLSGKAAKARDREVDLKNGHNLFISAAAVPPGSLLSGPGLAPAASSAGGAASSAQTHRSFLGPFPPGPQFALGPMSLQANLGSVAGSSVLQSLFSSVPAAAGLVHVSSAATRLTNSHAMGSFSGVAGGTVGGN
PRMT5, sequence (O14744 whole entry, species assumed): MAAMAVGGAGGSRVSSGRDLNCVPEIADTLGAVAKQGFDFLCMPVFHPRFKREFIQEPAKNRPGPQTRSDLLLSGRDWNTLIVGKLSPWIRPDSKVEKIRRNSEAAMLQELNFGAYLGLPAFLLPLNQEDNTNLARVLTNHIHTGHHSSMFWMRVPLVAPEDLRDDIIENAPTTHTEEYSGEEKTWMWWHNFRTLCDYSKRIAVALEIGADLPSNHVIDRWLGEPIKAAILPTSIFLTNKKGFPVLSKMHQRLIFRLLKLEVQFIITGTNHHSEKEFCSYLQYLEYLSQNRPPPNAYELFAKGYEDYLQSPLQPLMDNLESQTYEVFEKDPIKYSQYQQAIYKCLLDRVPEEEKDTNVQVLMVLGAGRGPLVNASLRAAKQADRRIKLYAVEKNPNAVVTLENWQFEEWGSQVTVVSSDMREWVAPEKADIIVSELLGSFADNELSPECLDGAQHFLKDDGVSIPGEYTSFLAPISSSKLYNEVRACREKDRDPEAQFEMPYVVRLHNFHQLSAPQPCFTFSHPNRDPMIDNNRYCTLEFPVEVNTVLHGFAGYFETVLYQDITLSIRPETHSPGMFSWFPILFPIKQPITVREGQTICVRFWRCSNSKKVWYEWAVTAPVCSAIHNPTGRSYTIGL
PRMT5, sequence (Q9BQA1 whole entry partner, species assumed): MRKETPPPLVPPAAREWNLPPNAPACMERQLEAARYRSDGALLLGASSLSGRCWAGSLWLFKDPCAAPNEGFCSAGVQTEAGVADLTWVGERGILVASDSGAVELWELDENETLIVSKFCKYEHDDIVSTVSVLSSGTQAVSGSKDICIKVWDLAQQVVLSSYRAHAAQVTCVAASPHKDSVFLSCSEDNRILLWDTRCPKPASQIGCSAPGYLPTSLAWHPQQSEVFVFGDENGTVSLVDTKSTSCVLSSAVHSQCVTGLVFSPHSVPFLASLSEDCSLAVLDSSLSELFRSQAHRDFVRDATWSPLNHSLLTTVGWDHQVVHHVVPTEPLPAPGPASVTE

- PNMT inhibition at the concentrations tested (Human recombinant PNMT; 1 and 10 μM): less than 50%
- inhibitory activity against PNMT lower than against NNMT (Human recombinant PNMT; selectivity NNMT over PNMT): more than 3000 fold
- PRMT4/CARM1 inhibition at the concentrations tested (PRMT4/CARM1): no inhibition was observed
- activity at 1 µM (SMYD2; read-out: SMYD2 Average Activity (%) 1µM): 39%
- activity at 10 µM (SMYD2; read-out: SMYD2 Average Activity (%) 10µM): 19%
- higher potency toward NNMT (than SMYD-2) (SMYD2; selectivity NNMT over SMYD-2): > 100 fold
- PRMT5 activity of the compound (in words) (PRMT5; 1 μM): no appreciable activity
- inhibition at 10 µM (PRMT5; read-out: PRMT5 inhibition): > 50%
- DOT1L activity of the compound (in words) (DOT1L; 1 μM): no appreciable activity
- inhibition at 10 µM (DOT1L; read-out: DOT1L inhibition): > 50%
Compound: N#Cc1ccc(/C=C/CN(CC[C@H](N)C(=O)O)C[C@H]2O[C@@H](n3cnc4c(N)ncnc43)[C@H](O)[C@@H]2O)cc1 [Compound 17u, (S)-2-Amino-4-((((2R,3S,4R,5R)-5-(6-amino-9H-purin-9-yl)-3,4-dihydroxytetrahydrofuran-2-yl)methyl)((E)-3-(4-cyanophenyl)allyl)amino)butanoic Acid]
- effect on cell viability, HSC-2 ([1]; 100 μM, MTT, 24, 48 and 72 h): clear inhibition of the cell viability; also recorded: significant decrease in cell viability
- effect on cell viability, HSC-2 [1, 5]: absent
- effect on cell viability, A549 ([2]; 100 μM, MTT, 24, 48 and 72 h): clear inhibition of the cell viability; also recorded: significant decrease in cell viability
- effect on cell viability, A549 [2, 5]: absent
- effect on cell viability, T24 ([3]; 100 μM, MTT, 24, 48 and 72 h): clear inhibition of the cell viability; also recorded: significant decrease in cell viability
- effect on cell viability, T24 [3, 5]: absent
- cell permeability (in words) [4]: very poor cell permeability; also recorded: poor cell permeability
